Source: patent US20260325464A1, “COMPOSITIONS FOR MODULATING THE EXPRESSION OF AQUAPORINS IN NEURODEGENERATIVE DISORDERS” (priority 2023, published 2026)

Key:
Parkinson's disease = assay: Catalepsy test in rats with reserpine-induced Parkinson's disease; type: in vivo, rat; parameters: catalepsy score at 30 min / catalepsy score at 60 min / catalepsy score at 120 min: unit not given here; conditions: for catalepsy score at 30 min / catalepsy score at 60 min / catalepsy score at 120 min: p.o. + Reserpine (4 mg/kg, s.c.), Mean ± SEM, n = 6
Excerpt: The induction of Parkinson's disease and measurement of other parameters were done as per the reported protocol (Santos et al., Cognitive, motor and tyrosine hydroxylase temporal impairment in a model of parkinsonism induced by reserpine. Behav Brain Res. 2013; 253:68-77 and Shishehbore et al. A novel kinetic spectrophotometric method for the determination of dopamine in biological and pharmaceutical samples. J Chem. 2013; 2013:1-6). Induction of Parkinson's disease was done by administering Resperine, which inhibits the monoamine vesicular transporters, thus decreasing the levels of monoamine neurotransmitters in the brain. Following pretreatment for 14 days with Gingerenone A, the rat groups received subcutaneous injections of reserpine (4 mg/kg) for the final five days of the treatment regimen. Resperine (5 mg) was dissolved in 1 ml of 1% acetic acid and then diluted tenfold with distilled water to achieve a final concentration of 500 μg/ml. The normal control group received saline with 1% acetic acid […], administered from day 10 to day 14. Thirty minutes following the administration of reserpine on the 14th day, behavioural assessments were conducted using the Open Field test, Y Maze, and Catalepsy tests to evaluate changes. Rats administered with Carbidopa, a known drug for the management of Parkinson's disease was also used for comparison. Upon completion of the study, brains were harvested for biochemical analyses and histopathological studies. The experimental group is depicted in table 10.
NeuroMol Med. 202022(2):314-330. Catalepsy in rats' manifests as an unresponsiveness to external stimuli accompanied by muscle rigidity. During the catalepsy test, rats were positioned on a wooden bar elevated 3-9 cm above the surface, with their forelimbs resting on it after administration of reserpine. The time taken for the rats to correct their posture was recorded as an indicator of catalepsy. Catalepsy ceased either when the rats climbed up the bar or when their forelimbs touched the floor. Observations were made at 30, 60, and 120 minutes after administration. All assessments were conducted in a quiet environment at a temperature of 23-25 degrees Celsius, with a maximum observation time of 5 minutes per trial.

Alzheimer's disease = assay: Morris water maze (MWM) test in rats with AlCl3-induced Alzheimer's disease; type: in vivo, rat; conditions: for Escape Latency Time: p.o. + AlCl3 (100 mg/kg, i.p.), MWM at 17th day, Mean ± SEM, n = 6
Method: Morris water maze (MWM)—This test was performed as per protocol established by Ishola et al., Protective role of Spondiasmombin leaf and Cola acuminata seed extracts against scopolamine-induced cognitive dysfunction. Alexandria J Med. 2018; 54(1):27-39. MWM is a round water tank “diameter: 110 cm and height: 60 cm” consisting of a white surface and that is filled using opaque water (Temp. 26±2° C.) to a distance (depth) of 30 cm. The MWM tank circle is divided into 4 equal quadrants [North Quadrant 1, East Quadrant 2, West Quadrant 3, and South Quadrant 4]. Further, it consists of a 10 cm diameter platform in a constant position. Index of memory improvement is measured by the Escape Latency Time (ELT)—which is the time the animal takes to find the platform.
The MWM plays an important role in the testing of learning and memory in rodent models of Alzheimer's Disease. It is used to test hippocampal-dependent learning, including acquisition of spatial memory and long-term spatial memory (Bromley-Brits et al., Morris water maze test for learning and memory deficits in Alzheimer's disease model mice, J Vis Exp., 2011 Jul. 20:(53):2920). In this study, learning was impaired in the Alzheimer's group.

Which results are given for COc1cc(CC/C=C/C(=O)CCc2ccc(O)c(OC)c2)ccc1O [Gingerenone A]?
catalepsy score at 30 min (Parkinson's disease; 5 mg/kg): 2.46 ± 0.15; catalepsy score at 60 min (Parkinson's disease; 5 mg/kg): 2.52 ± 0.54; catalepsy score at 120 min (Parkinson's disease; 5 mg/kg): 2.43 ± 0.70; catalepsy score at 30 min (Parkinson's disease; 10 mg/kg): 1.76 ± 0.11; catalepsy score at 60 min (Parkinson's disease; 10 mg/kg): 1.72 ± 0.73; catalepsy score at 120 min (Parkinson's disease; 10 mg/kg): 1.71 ± 0.75; catalepsy score at 30 min (Parkinson's disease; 20 mg/kg): 1.58 ± 0.16; catalepsy score at 60 min (Parkinson's disease; 20 mg/kg): 1.55 ± 0.32; catalepsy score at 120 min (Parkinson's disease; 20 mg/kg): 1.50 ± 0.82; muscle rigidity in catalepsy test (in words) (Parkinson's disease; reserpine model, Table 13): significantly improved muscle rigidity; Escape Latency Time (Alzheimer's disease; 5 mg/kg): 34.47 ± 3.87 s; Escape Latency Time (Alzheimer's disease; 10 mg/kg): 27.73 ± 2.18 s; Escape Latency Time (Alzheimer's disease; 20 mg/kg): 27.82 ± 2.63 s; learning and memory in MWM (in words) (Alzheimer's disease; AlCl3 model, Table 4): significantly improved learning and memory
